According to patent EP4741392A1, “1H-PYRAZOLO[4,3-C]PYRIDINE COMPOUND, AND COMPOSITION THEREOF AND USE THEREOF” (Shenzhen TargetRx Co., Ltd., priority 2023, dated 2025):

Each molecule was assayed on Ramos cells with BTK WT (assay: Phosphor-BTK(Y223) assay, suspended cells). Details: Homo sapiens, Ramos, phosphorylated BTK Y223, Ramos cells with BTK WT.
Format: cell-based
Procedure, shortened: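 Ramos BTK WT cells (2.5 k/well) were treated with compound dilutions for 2 h at 37 °C, then 5 mM Na3VO4 for 3 h. Lysates were read by HTRF p-BTK(Y223) cryptate/d2 antibodies overnight at RT (665/620 ratio). IC50 came from a four-parameter fit of % inhibition versus blank and positive-control wells.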

Compound	IC50 [nM]
COc1ccc(F)cc1C(=O)NCc1ccc(-c2nc(C)c(-c3ncccn3)c3[nH]nc(N)c23)cc1 [Example 84, N-(4-(3-amino-6-methyl-7-(pyrimidin-2-yl)-1H-pyrazolo[4,3-c]pyridin-4-yl)benzyl)-5-fluoro-2-methoxybenzamide]	5 to 10
COc1ccc(F)cc1C(=O)NCc1ccc(-c2nc(C(F)F)c(-c3ncccn3)c3[nH]nc(N)c23)cc1 [Example 85, N-(4-(3-amino-6-(difluoromethyl)-7-(pyrimidin-2-yl)-1H-pyrazolo[4,3-c]pyridin-4-yl)benzyl)-5-fluoro-2-methoxybenzamide]	≤ 5
COc1ccc(F)cc1C(=O)NCc1ccc(-c2nc(C3CCSCC3)cc3[nH]nc(N)c23)cc1 [Example 91, N-(4-(3-amino-6-(tetrahydro-2H-thiopyran-4-yl)-1H-pyrazolo[4,3-c]pyridin-4-yl)benzyl)-5-fluoro-2-methoxybenzamide]	5 to 10
C=CC(=O)N1CCCC(c2cc3[nH]nc(N)c3c(-c3ccc(CNC(=O)c4cc(F)ccc4OC)cc3)n2)C1 (stereo not drawn) [Example 96, N-(4-(6-(1-acryloylpiperidin-3-yl)-3-amino-1H-pyrazolo[4,3-c]pyridin-4-yl)benzyl)-5-fluoro-2-methoxybenzamide]	≤ 5
COc1ccc(F)cc1C(=O)NCc1ccc(-c2ncc(-c3nccn4nccc34)c3[nH]nc(N)c23)cc1 [Example 98, N-(4-(3-amino-7-(pyrazolo[1,5-a]pyrazin-4-yl)-1H-pyrazolo[4,3-c]pyridin-4-yl)benzyl)-5-fluoro-2-methoxybenzamide]	≤ 5

Continued, values first:

IC50 [nM]	Compound
≤ 5	COc1ccc(F)cc1C(=O)NCc1ccc(-c2ncc(-c3nc4ccccc4s3)c3[nH]nc(N)c23)cc1 [Example 99, N-(4-(3-amino-7-(benzo[d]thiazol-2-yl)-1H-pyrazolo[4,3-c]pyridin-4-yl)benzyl)-5-fluoro-2-methoxybenzamide]
≤ 5	COc1ccc(F)cc1C(=O)NCc1ccc(-c2ncc(-c3nc4cccnc4s3)c3[nH]nc(N)c23)cc1 [Example 100, N-(4-(3-amino-7-(thiazolo[5,4-b]pyridin-2-yl)-1H-pyrazolo[4,3-c]pyridin-4-yl)benzyl)-5-fluoro-2-methoxybenzamide]
≤ 5	CCN1CCc2nc(-c3cnc(-c4ccc(CNC(=O)c5cc(F)ccc5OC)cc4)c4c(N)n[nH]c34)sc2C1 [Example 101, N-(4-(3-amino-7-(5-ethyl-4,5,6,7-tetrahydrothiazolo[5,4-c]pyridin-2-yl)-1H-pyrazolo[4,3-c]pyridin-4-yl)benzyl)-5-fluoro-2-methoxybenzamide]
10 to 50	COc1ccc(F)cc1C(=O)NCc1ccc(-c2ncc(-c3ccc4c(n3)nc3n4CCOC3)c3[nH]nc(N)c23)cc1 [Example 102, N-(4-(3-amino-7-(6,7-dihydro-9H-pyrido[2',3':4,5]imidazo[2,1-c][1,4]oxazin-2-yl)-1H-pyrazolo[4,3-c]pyridin-4-yl)benzyl)-5-fluoro-2-methoxybenzamide]
10 to 50	COc1ccc(F)cc1C(=O)NCc1ccc(-c2ncc(-c3ccc4c(n3)nc3n4C(C)COC3)c3[nH]nc(N)c23)cc1 (stereo not drawn) [Example 103, N-(4-(3-amino-7-(6-methyl-6,7-dihydro-9H-pyrido[2',3':4,5]imidazo[2,1-c][1,4]oxazin-2-yl)-1H-pyrazolo[4,3-c]pyridin-4-yl)benzyl)-5-fluoro-2-methoxybenzamide]
> 50	COc1ccc(F)cc1C(=O)NCc1ccc(-c2ncc(-c3cccnc3)c3[nH]nc(N)c23)cc1 [Example 105, N-(4-(3-amino-7-(pyridin-3-yl)-1H-pyrazolo[4,3-c]pyridin-4-yl)benzyl)-5-fluoro-2-methoxybenzamide]
> 50	COc1ccc(F)cc1C(=O)NCc1ccc(-c2ncc(-c3ccncc3)c3[nH]nc(N)c23)cc1 [Example 106, N-(4-(3-amino-7-(pyridin-4-yl)-1H-pyrazolo[4,3-c]pyridin-4-yl)benzyl)-5-fluoro-2-methoxybenzamide]
